# Measurements: US20120010296A1, “TREATING VARIOUS DISORDERS WITH CATECHOL-O-METHYL-TRANSFERASE INHIBITORS” (priority 2009, published 2012)
# Experiments:
# Assay type in all cases: in vivo, human
# [1] = system: kleptomania; experiment: Example 3: case report, treatment of kleptomania (K-SAS, stealing behavior); settings: one patient
# Text: Patient was a married, college-educated person with no children. They presented for psychiatric evaluation for “out-of-control” shoplifting that had been going on since early adulthood. Although never arrested for their shoplifting, they reported stealing approximately 90% of the times when they went shopping. […] They denied wanting or needing the items and in fact usually discarded them in the trash when they returned home. They reported that when they initially stole items in early adulthood the act gave them a “rush” or a thrill. Over the years, they described the behavior as “automatic” and without awareness for the consequences.
# The diagnosis of kleptomania was confirmed using the Structured Clinical Interview for Kleptomania. Patient also underwent a comprehensive psychiatric evaluation using the Structured Clinical Interview for DSM-IV (SCID-I and SCID-II). […] Severity of kleptomania was assessed using the Kleptomania Symptom Assessment Scale (K-SAS) at baseline and periodically through […] follow-up. The K-SAS score at baseline was 28 (moderate severity).
# (§1) Over a period of two years, patient underwent serial trials of several medications. […] “I have gone to stores several times without stealing anything.” After 6 weeks, the benefit seemed to wane and their dose was increased to 100 mg po bid. […] They have been maintained on that dose for 5 months without stealing. They report mild urges to steal when in a store but feels able to control their behavior. Patient's K-SAS score has consistently been 6-8 over the last few months.
# [2] = system: pathological gambling; experiment: Example 1: open-label tolcapone study in pathological gambling (PG-YBOCS)
# Text: The effectiveness of COMT inhibitors to treat PG can be determined using known assessments, e.g., the Clinical Global Impression Scale (CGI), Yale Brown Obsessive Compulsive Scale Modified for Pathological Gambling (PG-YBOCS), the Gambling Symptom Assessment Scale (G-SAS), the Sheehan Disability Scale (SDS), the Hamilton Anxiety Rating Scale (HAM-A), the Hamilton Depression Rating Scale (HAM-D), the Perceived Stress Scale (PSS; used at baseline and study endpoint), and the Quality of Life Inventory (QOLI; used at baseline and study endpoint). In example 1, six subjects have been enrolled in a study to determine the effects of administration of the COMT inhibitor tolcapone on gambling. Subjects receive 100 mg-300 mg of tolcapone by mouth per day for 8 weeks, which can be administered either once per day for the 100 mg dose, or multiple (e.g., 3) times per day for higher doses (e.g., 300 mg dose). Five of the 6 (83%) subjects have “responded” (i.e., greater than 35% on the primary outcome measure, the PG-YBOCS) to tolcapone. In most open-label studies of pathological gambling, response rates are approximately 65%. Decrease in gambling symptoms was from a mean of 20.4 to 8.0 at endpoint using the PG-YBOCS. This compares to a mean decrease of 6 points on this same scale when used in treatment studies involving other medications. The mean effective dose was 140 mg/day.
# [3] = system: pathological gambling; experiment: Example 1 / Tolcapone Study: cognitive tasks (IED set shift, SST) before and after treatment
# Text: (§2) The cognitive tasks require subjects to disengage responding from the previously correct dimension in favor of responding to a novel dimension. Failure on the task may be due to the inability of the individual to disengage from a previously rewarding process thus perseverating on the incorrect response pattern.
# [4] = system: pathological gambling; experiment: Example 2: tolcapone study in pathological gambling, primary and secondary measures
# Text: The effectiveness of COMT inhibitors to treat PG can be determined using known assessments, e.g., the Clinical Global Impression Scale (CGI), Yale Brown Obsessive Compulsive Scale Modified for Pathological Gambling (PG-YBOCS), the Gambling Symptom Assessment Scale (G-SAS), the Sheehan Disability Scale (SDS), the Hamilton Anxiety Rating Scale (HAM-A), the Hamilton Depression Rating Scale (HAM-D), the Perceived Stress Scale (PSS; used at baseline and study endpoint), and the Quality of Life Inventory (QOLI; used at baseline and study endpoint). In Example 2, twelve subjects have been enrolled with four of these individuals currently receiving tolcapone and yet to complete the study. […] In most open-label studies of pathological gambling, response rates are approximately 60-65%. Decrease in gambling symptoms was from a mean of 20.4 to 9.25 at endpoint using the PG-YBOCS. This compares to a mean decrease of 6 points on this same scale when used in treatment studies involving other medications.
# [5] = system: nicotine dependent problem gambling subjects; experiment: Change in cigarette smoking in nicotine dependent problem gambling subjects taking tolcapone; settings: 10-Week Endpoint (n = 6); baseline 25.8 ± 11.1
# [6] = system: pathological gambling; experiment: Example 2: performance on cognitive tasks (IDED, SST) in pathological gamblers treated with tolcapone
# Text: as §2, with “on the ED task may” for “on the task may”
# [7] = Example 3: laboratory testing of liver aminotransferases every two weeks; settings: one patient
# Experimental: as §1
# [8] = system: attention deficit disorder (ADD); experiment: Example 4: case report, treatment of ADD; settings: one patient
# Experimental: Patient was a married, person, currently in nursing school. They have had life-long difficulties with organizing tasks, following through on instructions and completing tasks. Learning in classes and performing school work has been extremely difficult. Patient would tell each and every teacher that they have attention deficit disorder (ADD), they are slow to understand and that they need more time to complete examinations. Patient has been taking methylphenidate ([…]) 10 mg twice a day to cope with these difficulties. […] Patient said “I was able to answer 12 out of 12 questions, that was the first time for me.” After one week, patient increased tolcapone does to 100 mg twice a day. […] They found themself organizing future tasks in orderly manner and also completing the tasks mush more efficiently, something they just have not been able to do prior to now. Their spouse noticed this and commented this to them. […] Patient is much satisfied with the results of the tolcapone treatment. Follow-up interview two weeks post tolcapone 100 mg twice a day: “I got over my classes at 3:[…]/ I stayed '[…] just fired off this assignment. I met all objectives. I got 15 out of 15 points. This has never happened to me before. Prior to tolcapone, I would scramble, hodge-podge, . . . I would just give up. The whole thing is getting better and better. I feel that I can organize things better now.” “Look what my teacher wrote, 'very well organized'.” 30 out of 30, 27 out of 27 points! “I never got these assignments done. I can't explain it but this is phenomenal.” “I am sleeping better now, my anxiety has gone down, I have more energy now.” This is a patient who had been on methylphenidate 10 mg twice a day.
compound,measurement,setting,value
"CC1(C)O[C@@H]2[C@@H](CO[C@@]3(COS(N)(=O)=O)OC(C)(C)O[C@@H]23)O1 [Topiramate, topiramate]",K-SAS score (urges to steal),"[1]; monotherapy, 12 weeks at 150 mg/day, baseline 28",21
Cc1ccc(C(=O)c2cc(O)c(O)c([N+](=O)[O-])c2)cc1 [tolcapone],mean effective dose,"[2]; Example 1, pathological gambling",140 mg/day
same,"subjects who responded (greater than 35% on the primary outcome measure, the PG-YBOCS)","[2]; Example 1, 100 mg-300 mg per day by mouth for 8 weeks, five of the 6 subjects",83%
same,PG-YBOCS mean at endpoint (decrease in gambling symptoms),"[2]; Example 1, from a baseline mean of 20.4",8.0
same,"PG-YBOCS, Mean ± SD at EOS","[2]; whole group analysis, after treatment (EOS), baseline 21.5 + 3.11",10.25 ± 6.18
same,"IED Total errors (stage 6), ID shift, Mean ± SD at EOS","[3]; EOS, baseline 0.5 ± 1",0 ± 0
same,"SST Direction errors on stop and go trials, Mean ± SD at EOS","[3]; EOS, baseline 2.75 ± 4.27",6.5 ± 11.03
same,"IED Total errors (stage 8), ED shift, Mean ± SD at EOS","[3]; EOS, baseline 6.75 ± 5.91",3.5 ± 4.51
same,"IED Stages completed, Mean ± SD at EOS","[3]; EOS, baseline 9 ± 0",9 ± 0
same,"IED Total errors (adjusted), Mean ± SD at EOS","[3]; EOS, baseline 12.75 ± 6.5",17 ± 7.16
same,"IED Total errors, Mean ± SD at EOS","[3]; EOS, baseline 12.75 ± 6.5",17 ± 7.16
same,"SST Median correct RT on GO trials, Mean ± SD at EOS","[3]; EOS, baseline 530.5 ± 132.91",529 ± 155.66
same,extradimensional set shift task (cognitive measures),[3]; Example 1,significant improvement
same,mean effective dose,"[4]; Example 2, pathological gambling, compared to 600 mg/day used for Parkinson's",141 mg/day
same,PG-YBOCS mean at endpoint (decrease in gambling symptoms),"[4]; Example 2, from a baseline mean of 20.4",9.25
same,"subjects who responded (greater than 35% on the primary outcome measure, the PG-YBOCS)","[4]; Example 2, seven of 8 subjects who have completed the study",87.5%
same,"CGI-Improvement (Investigator), mean (SD) at endpoint",[4]; endpoint,1.88 (0.83)
same,"CGI-Improvement (Patient), mean (SD) at endpoint",[4]; endpoint,2.19 (1.13)
same,"Clinical Global Impression Severity, mean (SD) at endpoint","[4]; endpoint, baseline 4.38 (0.74), p-value 0.0098",3 (1.07)
same,"HAM-A, mean (SD) at endpoint","[4]; endpoint, baseline 8.88 (3.14), p-value 0.052",5.63 (2.97)
same,"HAM-D, mean (SD) at endpoint","[4]; endpoint, baseline 9 (2.67), p-value 0.033",5.63 (3.02)
same,"PG-YBOCS behavior Subscale score, mean (SD) at endpoint","[4]; endpoint, baseline 9.63 (3.2), p-value 0.0003",3.63 (3.96)
same,"PG-YBOCS urges/thought subscale score, mean (SD) at endpoint","[4]; endpoint, baseline 10.88 (2.23), p-value 0.0003",5.38 (2.33)
same,"Sheehan Disability Scale total score, mean (SD) at endpoint","[4]; endpoint, baseline 16.75 (6.84), p-value 0.003",5.38 (5.90)
same,"PG-YBOCS total score, mean (SD) at endpoint","[4]; endpoint, baseline 20.5 (3.38), p-value 0.0002",9.25 (5.3)
same,"G-SAS total score, mean (SD) at endpoint","[4]; endpoint, baseline 27.13 (7.54), p-value 0.045",18.63 (7.91)
same,Cigarettes smoked per day (mean ± SD),[5],3.3 ± 8.2
same,extradimensional set shift task (cognitive measures),"[6]; Example 2, neurocognitive results",significant improvement
same,SST directional errors at endpoint,"[6]; endpoint, baseline 2 ± 3.07",4.71 ± 8.24
same,IDED Stages completed at endpoint,"[6]; endpoint, baseline 8.5 ± 0.92",8.86 ± 0.38
same,IDED total errors (adjusted) at endpoint,"[6]; endpoint, baseline 26.38 ± 21.84",20.14 ± 11.77
same,SST SSRT at endpoint,"[6]; endpoint, baseline 149.8 ± 41.57",161.37 ± 29.11
same,SST median go reaction time at endpoint,"[6]; endpoint, baseline 470.5 ± 111.67, in ms (unit assumed)",476.64 ± 138.11
same,stealing behavior,"[1]; 100 mg po bid, after 3 weeks on the higher dose, maintained for 5 months without stealing",no stealing behavior
same,K-SAS score,"[1]; 100 mg po bid, over the last few months, baseline 28 (moderate severity)",6-8
same,stealing behavior,"[1]; 100 mg/day monotherapy, after 3 weeks",significant reductions in stealing behavior
same,changes in alanine aminotransferase or aspartate aminotranferase,[7],no changes
same,ADD symptoms reported by the patient,"[8]; 100 mg in the morning, added to methylphenidate 10 mg twice a day",improved sense of well-being
same,ADD symptoms reported by the patient,[8]; 100 mg twice a day,further improvement in their symptoms
same,side effects,[8]; 100 mg twice a day,no side effects
same,"attentional issues, compared with methylphenidate",[8]; chose to stay on tolcapone instead of methylphenidate,works better for their attentional issues
